Experimental data as given in patent US20230053688A1, “METHODS TO ALTER LATENCY IN EBV+ MALIGNANCIES” (Cornell University, priority 2020, published 2023).
Where a name gives a salt, the structure may show the parent alone. Read-outs that look alike come from different tables or passages of the source.

Test system: LMP1 expression in Kem I cells
Assay: microbe, parasite or virus in culture
Type: cell-based, EBV
Conditions: for fold induction at 2.5 µM / fold induction at 1 µM: human gammaherpesvirus 4, 48 h; for Average LMP1 Fold Increase / Replicate 1-LMP1 Fold Increase / Replicate 2-LMP1 Fold Increase: Kem I cells, 2.5 uM, 48 hours; for Average LMP1 Fold Increase: average of replicates 1 and 2; for Replicate 1-LMP1 Fold Increase / Replicate 2-LMP1 Fold Increase: fold change in LMP1 transcript vs vehicle
[1] = read-out: Average LMP1 Fold Increase, Kem I cells, 2.5 uM, 48 hours, average of replicates 1 and 2
[2] = read-out: Replicate 1-LMP1 Fold Increase, Kem I cells, 2.5 uM, 48 hours, fold change in LMP1 transcript vs vehicle
[3] = read-out: Replicate 2-LMP1 Fold Increase, Kem I cells, 2.5 uM, 48 hours, fold change in LMP1 transcript vs vehicle

## COc1ccc(C(=O)N2CCCC2=O)cc1 [Aniracetam]
[1]
  fold induction at 2.5 µM: 0.55
[2]
  fold induction at 2.5 µM: 0.72
[3]
  fold induction at 2.5 µM: 0.39

## N#CC1(c2ccc(NC(=O)c3cccnc3NCc3ccncc3)cc2)CCCC1 [Apatinib]
[1]
  fold induction at 2.5 µM: 0.87
[2]
  fold induction at 2.5 µM: 1.23
[3]
  fold induction at 2.5 µM: 0.5

## O=c1cc(-c2ccc(O)cc2)oc2cc(O)cc(O)c12 [Apigenin]
[1]
  fold induction at 2.5 µM: 0.58
[2]
  fold induction at 2.5 µM: 0.69
[3]
  fold induction at 2.5 µM: 0.47

## COc1ccc(-n2nc(C(N)=O)c3c2C(=O)N(c2ccc(N4CCCCC4=O)cc2)CC3)cc1 [Apixaban]
[1]
  fold induction at 2.5 µM: 0.32
[2]
  fold induction at 2.5 µM: 0.4
[3]
  fold induction at 2.5 µM: 0.24

## O=C1C(=O)N(Cc2ccc(Cl)c(Cl)c2)c2ccccc21 [Apoptosis Activator 2]
  Average LMP1 Fold Increase: 0.82
  Replicate 1-LMP1 Fold Increase: 0.87
  Replicate 2-LMP1 Fold Increase: 0.78

## C[C@@H](O[C@H]1OCCN(Cc2n[nH]c(=O)[nH]2)[C@H]1c1ccc(F)cc1)c1cc(C(F)(F)F)cc(C(F)(F)F)c1 [Aprepitant]
[1]
  fold induction at 2.5 µM: 0.99
[2]
  fold induction at 2.5 µM: 1.58
[3]
  fold induction at 2.5 µM: 0.41

## O=C(O)c1cccc(-c2noc(-c3ccccc3F)n2)c1 [Ataluren (PTC124)]
  Average LMP1 Fold Increase: 0.49
  Replicate 1-LMP1 Fold Increase: 0.50
  Replicate 2-LMP1 Fold Increase: 0.48

## CN(C)C(=O)Nc1cccc(-c2ccc(N(C)C)cc2)c1 [Atglistatin]
  Average LMP1 Fold Increase: 0.99
  Replicate 1-LMP1 Fold Increase: 0.75
  Replicate 2-LMP1 Fold Increase: 1.23

## CC(C)c1c(C(=O)Nc2ccccc2)c(-c2ccccc2)c(-c2ccc(F)cc2)n1CC[C@@H](O)C[C@@H](O)CC(=O)[O-].CC(C)c1c(C(=O)Nc2ccccc2)c(-c2ccccc2)c(-c2ccc(F)cc2)n1CC[C@@H](O)C[C@@H](O)CC(=O)[O-].[Ca+2] [Atorvastatin Calcium]
  Average LMP1 Fold Increase: 0.09
  Replicate 1-LMP1 Fold Increase: 0.05
  Replicate 2-LMP1 Fold Increase: 0.14

## Cn1c(=O)n(-c2ccc(C(C)(C)C#N)cc2)c2c3cc(-c4cnc5ccccc5c4)ccc3ncc21 [BEZ 235]
read-out: Average LMP1 Fold Increase, Kem I cells, 1 uM, 48 hours, average of replicates 1 and 2
  fold induction at 1 µM: 13.3
read-out: Replicate 1-LMP1 Fold Increase, Kem I cells, 1 uM, 48 hours, fold change in LMP1 transcript vs vehicle
  fold induction at 1 µM: 17.4
read-out: Replicate 2-LMP1 Fold Increase, Kem I cells, 1 uM, 48 hours, fold change in LMP1 transcript vs vehicle
  fold induction at 1 µM: 9.2

## CCN1CCN(c2ccc(Nc3cc(N(C)C(=O)Nc4c(Cl)c(OC)cc(OC)c4Cl)ncn3)cc2)CC1 [BGJ398 (NVP-BGJ398)]
  Average LMP1 Fold Increase: 0.85
  Replicate 1-LMP1 Fold Increase: 1.02
  Replicate 2-LMP1 Fold Increase: 0.69

## CC[C@@H]1C(=O)N(C)c2cnc(Nc3ccc(C(=O)NC4CCN(C)CC4)cc3OC)nc2N1C1CCCC1 [BI 2536]
[1]
  fold induction at 2.5 µM: 12.6
[2]
  fold induction at 2.5 µM: 23.3
[3]
  fold induction at 2.5 µM: 1.89

## CC(C)CCN1c2nc(Nc3cc(F)c(O)c(F)c3)ncc2N(C)C(=O)C1C (stereo not drawn) [BI-D1870]
  Average LMP1 Fold Increase: 0.50
  Replicate 1-LMP1 Fold Increase: 0.47
  Replicate 2-LMP1 Fold Increase: 0.52

## C/C(=C\C(=O)Nc1ccccc1C(=O)O)c1ccc2ccccc2c1 [BIBR 1532]
  Average LMP1 Fold Increase: 0.77
  Replicate 1-LMP1 Fold Increase: 0.63
  Replicate 2-LMP1 Fold Increase: 0.91

## COc1ccc2c(c1)c(CC(=O)N1CCOCC1)c(C)n2C(=O)c1ccc(Cl)cc1 [BML-190]
  Average LMP1 Fold Increase: 0.77
  Replicate 1-LMP1 Fold Increase: 1.01
  Replicate 2-LMP1 Fold Increase: 0.53

## COc1ccnc2[nH]cc(C(=O)C(=O)N3CCN(C(=O)c4ccccc4)C[C@H]3C)c12 [BMS-378806]
  Average LMP1 Fold Increase: 0.64
  Replicate 1-LMP1 Fold Increase: 0.75
  Replicate 2-LMP1 Fold Increase: 0.53

## Cn1c(N2CCCCS2(=O)=O)nc(C(=O)NCc2ccc(F)cc2)c(O)c1=O [BMS-707035]
[1]
  fold induction at 2.5 µM: 43.1
[2]
  fold induction at 2.5 µM: 18.2
[3]
  fold induction at 2.5 µM: 68

## O=C(Oc1cc(S(=O)(=O)c2ccccc2)ccc1[N+](=O)[O-])c1ccc(Cl)cc1 [BTB06584]
  Average LMP1 Fold Increase: 1.22
  Replicate 1-LMP1 Fold Increase: 1.23
  Replicate 2-LMP1 Fold Increase: 1.20

## O=C(Nc1cccc(Nc2ncc(Br)c(NCCc3cnc[nH]3)n2)c1)N1CCCC1 [BX-912]
  Average LMP1 Fold Increase: 0.37
  Replicate 1-LMP1 Fold Increase: 0.40
  Replicate 2-LMP1 Fold Increase: 0.35

## CNC(=O)[C@H](Cc1ccccc1)NC(=O)[C@H](CC(C)C)[C@H](CSc1cccs1)C(=O)NO [Batimastat (BB-94)]
  Average LMP1 Fold Increase: 0.46
  Replicate 1-LMP1 Fold Increase: 0.38
  Replicate 2-LMP1 Fold Increase: 0.55

## Cc1c(-c2ccc(O)cc2)n(Cc2ccc(OCCN3CCCCCC3)cc2)c2ccc(O)cc12 [Bazedoxifene HCl]
[1]
  fold induction at 2.5 µM: 0.54
[2]
  fold induction at 2.5 µM: 0.52
[3]
  fold induction at 2.5 µM: 0.56

## O=C(/C=C/c1cccc(S(=O)(=O)Nc2ccccc2)c1)NO [Belinostat (PXD101)]
  Average LMP1 Fold Increase: 51.63
  Replicate 1-LMP1 Fold Increase: 17.40
  Replicate 2-LMP1 Fold Increase: 85.87

## COc1c(O)cc2c(c1O)[C@@H]1O[C@H](CO)[C@@H](O)[C@H](O)[C@H]1OC2=O [Bergenin]
[1]
  fold induction at 2.5 µM: 0.86
[2]
  fold induction at 2.5 µM: 0.65
[3]
  fold induction at 2.5 µM: 1.07

## CC[C@H](NC(=O)[C@H](C)NC)C(=O)N1C[C@@H](O)C[C@H]1Cc1c(-c2[nH]c3cc(F)ccc3c2C[C@@H]2C[C@H](O)CN2C(=O)[C@H](CC)NC(=O)[C@H](C)NC)[nH]c2cc(F)ccc12 [Birinapant]
[1]
  fold induction at 2.5 µM: 1.03
[2]
  fold induction at 2.5 µM: 1.05
[3]
  fold induction at 2.5 µM: 1.02

## CC(C)NCC(O)COc1ccc(COCCOC(C)C)cc1 (stereo not drawn) [Bisoprolol fumarate]
[1]
  fold induction at 2.5 µM: 1.07
[2]
  fold induction at 2.5 µM: 0.41
[3]
  fold induction at 2.5 µM: 1.73

## CC(C)C[C@H](NC(=O)[C@H](Cc1ccccc1)NC(=O)c1cnccn1)B(O)O [Bortezomib (PS-341)]
  Average LMP1 Fold Increase: 77.22
  Replicate 1-LMP1 Fold Increase: 150.06
  Replicate 2-LMP1 Fold Increase: 4.38

## COc1ccccc1Oc1c(NS(=O)(=O)c2ccc(C(C)(C)C)cc2)nc(-c2ncccn2)nc1OCCO [Bosentan Hydrate]
[1]
  fold induction at 2.5 µM: 0.81
[2]
  fold induction at 2.5 µM: 1.22
[3]
  fold induction at 2.5 µM: 0.4

## COc1cc(Nc2c(C#N)cnc3cc(OCCCN4CCN(C)CC4)c(OC)cc23)c(Cl)cc1Cl [Bosutinib (SKI-606)]
  Average LMP1 Fold Increase: 0.81
  Replicate 1-LMP1 Fold Increase: 0.36
  Replicate 2-LMP1 Fold Increase: 1.26

## CCN[C@H]1CN(CCCOC)S(=O)(=O)c2sc(S(N)(=O)=O)cc21 [Brinzolamide]
[1]
  fold induction at 2.5 µM: 0.21
[2]
  fold induction at 2.5 µM: 0.23
[3]
  fold induction at 2.5 µM: 0.2

## CCCCN1CCCCC1C(=O)Nc1c(C)cccc1C (stereo not drawn) [Bupivacaine HCl]
[1]
  fold induction at 2.5 µM: 0.59
[2]
  fold induction at 2.5 µM: 0.64
[3]
  fold induction at 2.5 µM: 0.53

## NC1(Cc2ccc(Cl)cc2)CCN(c2ncnc3[nH]ccc23)CC1 [CCT128930]
  Average LMP1 Fold Increase: 0.59
  Replicate 1-LMP1 Fold Increase: 0.40
  Replicate 2-LMP1 Fold Increase: 0.78

## CC(C)C[C@H](NC(=O)[C@@H](NC(=O)c1cccc(-c2ccccc2)n1)[C@@H](C)O)B(O)O [CEP-18770 (Delanzomib)]
  Average LMP1 Fold Increase: 96.92
  Replicate 1-LMP1 Fold Increase: 98.21
  Replicate 2-LMP1 Fold Increase: 95.63

## O=C(NC(NC(=S)Nc1ccc(F)c([N+](=O)[O-])c1)C(Cl)(Cl)Cl)C(c1ccccc1)c1ccccc1 (stereo not drawn) [CGK 733]
  Average LMP1 Fold Increase: 0.71
  Replicate 1-LMP1 Fold Increase: 0.58
  Replicate 2-LMP1 Fold Increase: 0.84

## Nc1ncnc2n[nH]c(Nc3ccc(F)cc3)c12 [CGP 57380]
  Average LMP1 Fold Increase: 1.33
  Replicate 1-LMP1 Fold Increase: 0.81
  Replicate 2-LMP1 Fold Increase: 1.86

## CCNC(=O)[C@H]1O[C@@H](n2cnc3c(N)nc(NCCc4ccc(CCC(=O)O)cc4)nc32)[C@H](O)[C@@H]1O [CGS 21680 HCl]
[1]
  fold induction at 2.5 µM: 0.7
[2]
  fold induction at 2.5 µM: 0.72
[3]
  fold induction at 2.5 µM: 0.68

## O=c1[nH]c2ccc(Cl)cc2c(N[C@@H]2CN3CCC2CC3)c1-c1nc2ccccc2[nH]1 [CHIR-124]
  Average LMP1 Fold Increase: 68.46
  Replicate 1-LMP1 Fold Increase: 105.57
  Replicate 2-LMP1 Fold Increase: 31.35

## Cc1[nH]c2ccccc2c1CCNC(=O)c1cccs1 [CK-636]
  Average LMP1 Fold Increase: 1.27
  Replicate 1-LMP1 Fold Increase: 0.69
  Replicate 2-LMP1 Fold Increase: 1.84

## C=CC(=O)Nc1cccc(Nc2nc(Nc3ccc(Oc4ccnc(C(=O)NC)c4)cc3)ncc2F)c1 [CNX-774]
  Average LMP1 Fold Increase: 0.62
  Replicate 1-LMP1 Fold Increase: 0.51
  Replicate 2-LMP1 Fold Increase: 0.73

## CN(C)C(=O)[C@H](O)[C@H](Cc1ccccc1)NC(=O)c1cc2cc(Cl)ccc2[nH]1 [CP-91149]
  Average LMP1 Fold Increase: 0.64
  Replicate 1-LMP1 Fold Increase: 0.49
  Replicate 2-LMP1 Fold Increase: 0.80

## COCCOc1ccc2c(c1)ncn2-c1ccc2cccc(N3CCC(N)CC3)c2n1 [CP-673451]
[1]
  fold induction at 2.5 µM: 0.49
[2]
  fold induction at 2.5 µM: 0.52
[3]
  fold induction at 2.5 µM: 0.45

## O=C(O)c1cc2cccc([N+](=O)[O-])c2[nH]1 [CRT0044876]
  Average LMP1 Fold Increase: 0.44
  Replicate 1-LMP1 Fold Increase: 0.55
  Replicate 2-LMP1 Fold Increase: 0.33

## O=C(/C=C/c1ccc(O)c(O)c1)OCCc1ccccc1 [Caffeic Acid Phenethyl Ester]
[1]
  fold induction at 2.5 µM: 0.46
[2]
  fold induction at 2.5 µM: 0.59
[3]
  fold induction at 2.5 µM: 0.33

## Cc1ccc([C@@H]2O[C@H](CO)[C@@H](O)[C@H](O)[C@H]2O)cc1Cc1ccc(-c2ccc(F)cc2)s1 [Canagliflozin]
  Average LMP1 Fold Increase: 0.63
  Replicate 1-LMP1 Fold Increase: 0.52
  Replicate 2-LMP1 Fold Increase: 0.75

## CCOc1nc2cccc(C(=O)O)c2n1Cc1ccc(-c2ccccc2-c2nnn[nH]2)cc1 [Candesartan]
[1]
  fold induction at 2.5 µM: 0.43
[2]
  fold induction at 2.5 µM: 0.34
[3]
  fold induction at 2.5 µM: 0.52
